Results published in patent US20080269213A1, “8-Hydroxyquinoline compounds and methods thereof” (Wyeth, priority 2006, published 2008).
Read-outs that look alike come from different tables or passages of the source.

Tests used:
[1] = molecular target: T1, recombinant human Aggrecanase-2 Agg2-Phe628 (Homo sapiens, UniProt Q9UNA0); experiment: Aggrecanase 2 in vitro enzyme assay (Agg-2 FRET, quenched fluorescent peptide substrate); assay type: biochemical; set-up: purified recombinant human Aggrecanase-2 Agg2-Phe628 (MW=41,737); This is a truncated form of full-length human aggrecanase-2; made in house; host or cells: CHO cells
T1 sequence (Q9UNA0 262-628 limits assumed): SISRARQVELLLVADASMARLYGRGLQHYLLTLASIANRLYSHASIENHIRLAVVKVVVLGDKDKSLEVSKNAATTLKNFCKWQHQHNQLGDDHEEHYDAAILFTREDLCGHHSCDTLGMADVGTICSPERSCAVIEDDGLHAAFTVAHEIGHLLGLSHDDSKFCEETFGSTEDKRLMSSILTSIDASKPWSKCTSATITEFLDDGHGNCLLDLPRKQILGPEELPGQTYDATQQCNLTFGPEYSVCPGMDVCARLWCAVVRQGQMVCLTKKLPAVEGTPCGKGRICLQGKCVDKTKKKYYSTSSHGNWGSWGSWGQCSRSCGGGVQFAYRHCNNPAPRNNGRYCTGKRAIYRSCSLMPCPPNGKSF
In short: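 Continuous FRET assay with purified truncated human Aggrecanase-2 Agg2-Phe628 (CHO-expressed, 0.5 μg/ml final) and brevican-derived Abz/Dnp peptide (25 μM final) in 50 mM HEPES pH 7.5, 100 mM NaCl, 5 mM CaCl2, 0.1% CHAPS, 5% glycerol. Enzyme preincubated with compound before substrate; fluorescence (ex 340/em 420 nm) followed kinetically 40 min at 30 °C.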

Agg-1 = molecular target: T2, Agg-1 (Homo sapiens, UniProt O75173); experiment: Agg-1 FRET assay; assay type: biochemical; conditions: for inhibition at 7.4 µM: @ 7400 nM; for inhibition at 7.5 µM: @ 7500 nM
T2 sequence (O75173 213-837): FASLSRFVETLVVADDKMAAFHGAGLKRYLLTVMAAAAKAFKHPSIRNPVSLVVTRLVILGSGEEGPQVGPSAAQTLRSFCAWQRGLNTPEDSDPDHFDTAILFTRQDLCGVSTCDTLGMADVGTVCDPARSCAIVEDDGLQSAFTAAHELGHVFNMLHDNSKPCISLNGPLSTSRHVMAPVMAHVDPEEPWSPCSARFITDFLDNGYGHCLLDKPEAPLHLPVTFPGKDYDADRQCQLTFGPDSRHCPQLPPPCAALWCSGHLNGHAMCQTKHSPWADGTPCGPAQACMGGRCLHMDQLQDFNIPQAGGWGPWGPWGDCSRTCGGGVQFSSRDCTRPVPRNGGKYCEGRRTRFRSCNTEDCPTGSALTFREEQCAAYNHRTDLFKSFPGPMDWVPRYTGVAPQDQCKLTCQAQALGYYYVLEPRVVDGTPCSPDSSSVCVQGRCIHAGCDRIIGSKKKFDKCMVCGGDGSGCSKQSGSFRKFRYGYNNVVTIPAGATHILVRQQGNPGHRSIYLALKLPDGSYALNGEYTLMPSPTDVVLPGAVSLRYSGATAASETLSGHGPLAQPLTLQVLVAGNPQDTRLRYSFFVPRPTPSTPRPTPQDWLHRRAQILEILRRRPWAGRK
Description: The Agg-1/Agg-2 FRET data for N-[(8-hydroxyquinolin-2-yl)(phenyl)methyl]-2-phenoxyacetamide and 2-{[(phenoxyacetyl)amino](phenyl)methyl}quinolin-8-yl phenoxyacetate is presented in Table 1.

[2] = read-out: Agg-2 FRET Median IC50
[3] = read-out: Agg-2 IC50 (μM) or % Inhibition
[4] = IC50, read-out: Agg-1 IC50 (μM) or % Inhibition

Molecule `COc1ccc(Oc2cccc(C(NC(=O)COc3ccccc3)c3cc(Cl)c4cccnc4c3O)c2)cc1` (centres unmarked) [Example 128, N-{(5-chloro-8-hydroxyquinolin-7-yl)[3-(4-methoxyphenoxy)phenyl]methyl}-2-phenoxyacetamide] has an IC50 ([1]; read-out: Agg2 IC50) of 1.1 µM and an inhibition at 7.4 µM (Agg-1; read-out: Agg1 %) of 57%.
`Cn1nnc2cc(C(NC(=O)COc3ccccc3)c3cc(Cl)c4cccnc4c3O)ccc21` (centres unmarked) [Example 177, N-[(5-chloro-8-hydroxyquinolin-7-yl)(1-methyl-1H-1,2,3-benzotriazol-5-yl)methyl]-2-phenoxyacetamide] was tested, and the IC50 ([1]; read-out: Agg2 IC50) was 1.3 µM, the IC50 [1, 2] was 1.3 µM and the IC50 (Agg-1; read-out: Agg1 IC50) was > 20 µM.
`Cc1ccc2occ(C(NC(=O)COc3ccccc3)c3cc(Cl)c4cccnc4c3O)c(=O)c2c1` (centres unmarked) [N-[(5-chloro-8-hydroxyquinolin-7-yl)(6-methyl-4-oxo-4H-chromen-3-yl)methyl]-2-phenoxyacetamide] showed an IC50 ([1]; read-out: Agg2 IC50) of 1.2 µM and an inhibition at 7.4 µM (Agg-1; read-out: Agg1 %) of 43%.
Work on `O=C(COc1ccccc1)NC(c1ccc(-c2csnn2)cc1)c1cc(Cl)c2cccnc2c1O` (centres unmarked) [Example 147, N-{(5-chloro-8-hydroxyquinolin-7-yl)[4-(1,2,3-thiadiazol-4-yl)phenyl]methyl}-2-phenoxyacetamide] yielded an IC50 ([1]; read-out: Agg2 IC50) of 1.07 µM, an IC50 [1, 2] of 1.07 µM and an IC50 (Agg-1; read-out: Agg1 IC50) of 4.68 µM.
With `O=C(COc1ccccc1)NC(c1ccc2c(c1)OCO2)c1cc(Cl)c2cccnc2c1O` (centres unmarked) [N-[1,3-benzodioxol-5-yl(5-chloro-8-hydroxyquinolin-7-yl)methyl]-2-phenoxyacetamide] the IC50 ([1]; read-out: Agg2 IC50) was 1.56 µM, the IC50 [1, 2] was 1.56 µM and the IC50 (Agg-1; read-out: Agg1 IC50) was > 22 µM.
For `Cc1ccc(-c2cccc(C(Cc3cc(Cl)c4cccnc4c3O)NC(=O)COc3ccccc3)c2)s1` (centres unmarked), the inhibition at 22 µM [1, 3] was 58% and the inhibition at 66.7 µM (Agg-1; % inhibition @ 66.7 μM, read-out: Agg-1 IC50 (μM) or % Inhibition) was 42%.
Work on `Cc1ccc(C(NC(=O)COc2ccccc2)c2cc(Cl)c3cccnc3c2O)cc1C` (centres unmarked) [N-[(5-chloro-8-hydroxyquinolin-7-yl)(3,4-dimethylphenyl)methyl]-2-phenoxyacetamide] yielded an IC50 ([1]; read-out: Agg2 IC50) of 1.5 µM and an IC50 (Agg-1; read-out: Agg1 IC50) of 66 to 200 µM.
Work on `CCCCN(CCCC)c1ccc(C(NC(=O)COc2ccccc2)c2cc(Cl)c3cccnc3c2O)cc1` (centres unmarked) [Example 136, N-{(5-chloro-8-hydroxyquinolin-7-yl)[4-(dibutylamino)phenyl]methyl}-2-phenoxyacetamide] yielded an inhibition at 33.3 µM ([1]; @ 33300 nM) of 52% and an inhibition at 66.7 µM (Agg-1; @ 66700 nM, read-out: Agg1 %) of 40%.
`O=C(COc1ccccc1)NC(c1cc2c(cc1Cl)OCO2)c1cc(Cl)c2cccnc2c1O` (centres unmarked) [N-[(6-chloro-1,3-benzodioxol-5-yl)(5-chloro-8-hydroxyquinolin-7-yl)methyl]-2-phenoxyacetamide] was tested, and the IC50 ([1]; read-out: Agg2 IC50) was 1.37 µM, the IC50 [1, 2] was 1.37 µM and the IC50 (Agg-1; read-out: Agg1 IC50) was > 30 µM.
Work on `O=C(COc1ccccc1)NC(CCc1ccccc1)c1cc(Cl)c2cccnc2c1O` (centres unmarked) [N-[1-(5-chloro-8-hydroxyquinolin-7-yl)-3-phenylpropyl]-2-phenoxyacetamide] yielded an IC50 ([1]; read-out: Agg2 IC50) of 1.7 µM and an inhibition at 22 µM (Agg-1; @ 22000 nM, read-out: Agg1 %) of 56%.
Molecule `COc1cccc(C(NC(=O)COc2ccccc2)c2cc(Cl)c3cccnc3c2O)c1` (centres unmarked) [Example 126, N-[(5-chloro-8-hydroxyquinolin-7-yl)(3-methoxyphenyl)methyl]-2-phenoxyacetamide] has an IC50 ([1]; read-out: Agg2 IC50) of 1.8 µM and an inhibition at 22 µM (Agg-1; @ 22000 nM, read-out: Agg1 %) of 44%.
`O=C(COc1ccccc1)NC(Cc1cc(Cl)c2cccnc2c1O)c1ccc2c(c1)OCO2` (centres unmarked) was tested, and the IC50 ([1]; IC50, read-out: Agg-2 IC50 (μM) or % Inhibition) was 9.6 µM and the inhibition at 22 µM (Agg-1; read-out: Agg-1 IC50 (μM) or % Inhibition) was 67%.
Work on `O=C(CCl)NC(c1ccccc1)c1cc(Br)c2cccnc2c1O` (centres unmarked) [N-[(5-bromo-8-hydroxyquinolin-7-yl)(phenyl)methyl]-2-chloroacetamide] yielded an IC50 ([1]; read-out: Agg2 IC50) of 5.4 µM and an IC50 (Agg-1; read-out: Agg1 IC50) of 22 to 67 µM.
Work on `O=C(COc1ccccc1)NC(c1ccccc1[N+](=O)[O-])c1cc(Cl)c2cccnc2c1O` (centres unmarked) [N-[(5-chloro-8-hydroxyquinolin-7-yl)(2-nitrophenyl)methyl]-2-phenoxyacetamide] yielded an inhibition at […] ([1]; @ 1200 nM) of 58%, an IC50 [1, 2] of 1.21 µM and an inhibition at 7.4 µM (Agg-1; read-out: Agg1 %) of 48%.
`O=C(COc1ccc(-c2ccccc2)cc1)NC(c1ccccc1)c1cc(Cl)c2cccnc2c1O` (centres unmarked) [2-(biphenyl-4-yloxy)-N-[(5-chloro-8-hydroxyquinolin-7-yl)(phenyl)methyl]acetamide] gave an IC50 ([1]; read-out: Agg2 IC50) of 2 µM and an IC50 (Agg-1; read-out: Agg1 IC50) of 7.4 to 20 µM.
With `O=C(COc1ccccc1)NC(c1ccc(-c2ccncc2)cc1)c1cc(Cl)c2cccnc2c1O` (centres unmarked) [N-[(5-chloro-8-hydroxyquinolin-7-yl)(4-pyridin-4-ylphenyl)methyl]-2-phenoxyacetamide] the inhibition at 0.8 µM ([1]; @ 800 nM) was 48% and the IC50 (Agg-1; read-out: Agg1 IC50) was 4.7 µM.
`O=C(NC(c1ccc2c(c1)OCO2)c1cc(Cl)c2cccnc2c1O)OCc1ccccc1` (centres unmarked) [benzyl [1,3-benzodioxol-5-yl(5-chloro-8-hydroxyquinolin-7-yl)methyl]carbamate] was tested, and the IC50 ([1]; read-out: Agg2 IC50) was 1.56 µM, the IC50 [1, 2] was 1.56 µM and the IC50 (Agg-1; read-out: Agg1 IC50) was > 3 µM.
Work on `O=C(CNCc1cccc2ccccc12)NC(c1ccccc1)c1cc(Cl)c2cccnc2c1O` (centres unmarked) [Example 224, N-[(5-chloro-8-hydroxyquinolin-7-yl)(phenyl)methyl]-N2-(1-naphthylmethyl)glycinamide] yielded an IC50 ([1]; read-out: Agg2 IC50) of 1.56 µM, an IC50 [1, 2] of 1.56 µM and an IC50 (Agg-1; read-out: Agg1 IC50) of 17.5 µM.
Work on `CC(C)(C)c1csc(-c2ccc(C(NC(=O)COc3ccccc3)c3cc(Cl)c4cccnc4c3O)cc2)n1` (centres unmarked) [Example 146, N-[[4-(4-tert-butyl-1,3-thiazol-2-yl)phenyl](5-chloro-8-hydroxyquinolin-7-yl)methyl]-2-phenoxyacetamide] yielded an inhibition at 11 µM ([1]; @ 11000 nM) of 49% and an inhibition at 66.7 µM (Agg-1; @ 66700 nM, read-out: Agg1 %) of 42%.
`O=C(COc1ccccc1)NC(c1cc(Cl)c2cccnc2c1O)c1ccnc2ccccc12` (centres unmarked) [N-[(5-chloro-8-hydroxyquinolin-7-yl)(quinolin-4-yl)methyl]-2-phenoxyacetamide] was tested, and the inhibition at 2.8 µM ([1]; @ 2800 nM) was 45% and the inhibition at 11 µM (Agg-1; @ 11000 nM, read-out: Agg1 %) was 34%.
In the case of `O=C(COc1ccccc1)NC(c1cn2c(n1)COCC2)c1cc(Cl)c2cccnc2c1O` (centres unmarked) [Example 178, N-[(5-chloro-8-hydroxyquinolin-7-yl)(5,6-dihydro-8H-imidazo[2,1-c][1,4]oxazin-2-yl)methyl]-2-phenoxyacetamide], the IC50 ([1]; read-out: Agg2 IC50) is reported as 6.2 µM and the IC50 (Agg-1; read-out: Agg1 IC50) is reported as > 20 µM.
`CN(C)Cc1ccc(C(Cc2cc(Cl)c3cccnc3c2O)NC(=O)COc2ccccc2)o1` (centres unmarked) gave an inhibition at 200 µM [1, 3] of 68% and an IC50 (Agg-1; [4]) of 16.8 µM.
`O=C(Cc1ccccc1)NC(c1ccccc1)c1cc(Cl)c2cccnc2c1O` (centres unmarked) [N-[(5-chloro-8-hydroxyquinolin-7-yl)(phenyl)methyl]-2-phenylacetamide] showed an IC50 ([1]; read-out: Agg2 IC50) of 2.53 µM, an IC50 [1, 2] of 2.53 µM and an inhibition at […] (Agg-1; @ 1200 nM, read-out: Agg1 %) of 20%.
`COc1ccc(C(NC(=O)COc2ccccc2)c2cc(Cl)c3cccnc3c2O)cc1OCc1ccccc1` (centres unmarked) [N-[[3-(benzyloxy)-4-methoxyphenyl](5-chloro-8-hydroxyquinolin-7-yl)methyl]-2-phenoxyacetamide] showed an IC50 ([1]; read-out: Agg2 IC50) of 1.04 µM and an inhibition at 7.5 µM (Agg-1; read-out: Agg1 %) of 54%.
`O=C(COc1ccccc1)NC(/C=C/c1ccccc1)c1cc(Cl)c2cccnc2c1O` (centres unmarked) [N-[(2E)-1-(5-chloro-8-hydroxyquinolin-7-yl)-3-phenylprop-2-en-1-yl]-2-phenoxyacetamide] was tested, and the IC50 ([1]; read-out: Agg2 IC50) was 1.6 µM and the inhibition at 7.5 µM (Agg-1; read-out: Agg1 %) was 50%.
`O=C(COc1ccccc1)NC(c1ccc(-n2cccn2)cc1)c1cc(Cl)c2cccnc2c1O` (centres unmarked) [Example 145, N-{(5-chloro-8-hydroxyquinolin-7-yl)[4-(1H-pyrazol-1-yl)phenyl]methyl}-2-phenoxyacetamide] showed an IC50 ([1]; read-out: Agg2 IC50) of 1.2 µM and an IC50 (Agg-1; read-out: Agg1 IC50) of 5.8 µM.
Work on `O=C(COc1ccccc1)NC(Cc1ccc2cccnc2c1O)c1ccccc1` (centres unmarked) yielded an inhibition at 100 µM [1, 3] of 59% and an IC50 (Agg-1; [4]) of 2.1 µM.
